In test [1] the target is T1, 5-hydroxytryptamine (5-HT) reuptake sites (Rattus norvegicus, UniProt P31652).
T1 construct: Frontal cortical tissue from the brains of male Sprague-Dawley rats; from tissue; host or cells: rat brain frontal cortex (crude synaptosomes in A2, washed membranes in A5)
The test is described as follows: displacement of [3H]paroxetine from 5-HT reuptake sites, frontal cortical membranes. To be noted: 10^-6 M test compound, [3H]paroxetine 30 pM, one test only; for inhibition at 1 µM: read-out: 5-HT uptake (% displacement of specific binding of tritiated ligand). Format: binding. On the procedure: Frontal cortical tissue from the brains of male Charles River rats weighing 150-250 g was homogenised in ice-cold 0.25M sucrose (1:30 w/v) using a Kinematic polytron (speed setting 6 for 30 seconds) and centrifuged at 1000 g for 12 minutes. The supernatant was stored on ice and the pellet was resuspended in 0.25M sucrose (1:20 w/v) and centrifuged at 850 g for 10 minutes. Combined supernatants were diluted to 1:100 w/v with ice-cold 50 mM Tris-HCl, pH 7.5 (at 25° C.) containing 120 mM sodium chloride and 5 mM potassium chloride (Tris buffer) and centrifuged at 40,000 g for 10 minutes. The resulting pellet was resuspended in 50 mM Tris buffer (1:100 w/v) and recentrifuged at 40,000 g for 10 minutes. The final pellet was resuspended in 50 mM Tris buffer (equivalent to 2 mg wet weight of tissue/ml) and used immediately in the binding assay. All centrifugations were carried out at 4° C.
Membranes (1000 μl; equivalent to 2 mg wet weight of tissue/tube) were incubated with 200 μl [^3 H]paroxetine at a single concentration of 30 pM and 200 μl of distilled water (total binding) or 200 μl of test compound (10^-6 M) or 200 μl of citalopram (1 μM; non-specific binding) for 2 h at 22° C.
Membrane bound radioactivity was recovered by filtration under vacuum through Whatman GFIC filters using a Brandel cell harvester. Filters were rapidly washed with 16 ml ice-cold 50 mM Tris buffer and radioactivity determined by liquid scintillation counting (2 ml Packard MV Gold scintillator).
(§1) For each of these tests measuring the ability of compounds of Formula I to displace standard ligands from dopamine (DA), 5-hydroxytryptamine (5-HT) and noradrenaline (NA) reuptake sites in vitro, the percentage displacement of specific binding of tritiated ligand by 10^-6 M test compound was calculated in the following way:
(§2) Firstly, specific binding of tritiated ligand in the absence (A) and presence (B) of test compound was determined:
(§3) In the absence of compound:
(§4) A (dpm)=Total binding (dpm)-Non-specific binding (dpm)
(§5) In the presence of compound (10^-6 M):
(§6) B (dpm)=Binding at 10^-6 M (dpm)-Non-specific binding (dpm)
(§7) The specific binding of tritiated ligand in the presence (B) of compound was then converted to a percentage of specific binding of tritiated ligand in the absence (A) of compound:
(§8) % Specific binding at 10^-6 M=B (dpm)/A(dpm)×100
(§9) The percentage displacement of specific binding of trtiated ligand by the test compound (10^-6 M) was then obtained by subtraction of the percentage specific binding in the presence of compound from the percentage specific binding in the absence of compound, which is taken as the maximum binding and so equals 100%:
(§10) % Displacement at 10^-6 M=100-% Specific binding at 10^-6 M.
(§11) The values given below in Table 2 for examples 6 to 76 are % displacement of specific binding of tritiated ligand by 10^-6 M test compound and represent results from one test only. IA refers to <50% displacement.
Background: In a radioligand displacement assay an active substance lowers the binding of a labelled ligand.

Test [2] concerns the target T2, dopamine (DA) reuptake sites (Rattus norvegicus, UniProt P23977).
T2 construct: Striatal tissue from the brains of male Charles River rats weighing 150-250 g; from tissue; host or cells: rat brain striatum (crude synaptosomes in A1, washed membranes in A4)
The test is described as follows: displacement of [3H]GBR 12935 from dopamine reuptake sites, striatal membranes. Format: binding. To be noted: 10^-6 M test compound, [3H]GBR 12935 1 nM, one test only; for inhibition at 1 µM: read-out: DA uptake (% displacement of specific binding of tritiated ligand). The protocol: Striatal tissue from the brains of male Charles River rats weighing 150-250 g was homogenised in ice-cold 0.32M sucrose (1:80 w/v) using a motor driven teflon pestle (12 strokes, 800 rpm) and centrifuged at 1000 g for 12 minutes. The supernatant was stored on ice and the pellet was resuspended in 0.32M sucrose (1:80 w/v) and centrifuged at 850 g for 10 minutes. Combined supernatants were diluted to 1:320 w/v with ice-cold 50 mM Tris-HCl, pH 7.4 (at 25° C.) containing 200 mM sodium chloride and 5 mM potassium chloride (Tris buffer) and centrifuged at 40,000 g for 10 minutes. The resulting pellet was resuspended in 10 ml of 50 mM Tris buffer, incubated at 37° C. for 10 min, diluted in 50 mM Tris buffer (1:320 w/v) and recentrifuged at 40,000 g for 10 minutes. The final pellet was resuspended in 50 mM Tris buffer (equivalent to 1.25 mg wet weight of tissue/ml) and used immediately in the binding assay. All centrifugations were carried out at 4° C.
Membranes (800 μl; equivalent to 1 mg wet weight of tissue/tube) were incubated with 100 μl [^3 H]GBR 12935 at a single concentration of 1 nM and 100 μl of distilled water (total binding) or 100 μl of test compound (10^-6 M) or 100 μl of mazindol (1 μM; non-specific binding) for 90 min at 4° C.
Membrane bound radioactivity was recovered by filtration under vacuum through Whatman GF/C filters, pre-soaked for 1 h in 0.5% polyethylenimine,using a Brandel cell harvester. Filters were rapidly washed with 16 ml of ice-cold 50 mM Tris-HCl, pH 7.4 and radioactivity determined by liquid scintillation counting (2 ml Packard MV Gold scintillator).
as §1, §2, §3, §4, §5, §6, §7, §8, §9, §10, §11

Test [3] deals with T3, noradrenaline (NA) reuptake sites (Rattus norvegicus, UniProt Q63380).
T3 construct: Frontal cortical tissue from the brains of male Sprague-Dawley rats; from tissue; host or cells: rat brain frontal cortex (crude synaptosomes in A3, washed membranes in A6)
The test is described as follows: displacement of [3H]nisoxetine from noradrenaline reuptake sites, frontal cortical membranes. To be noted: 10^-6 M test compound, [3H]nisoxetine 0.6 nM, one test only, read-out: NA uptake (% displacement of specific binding of tritiated ligand). The protocol: Frontal cortical tissue from the brains of male Charles River rats weighing 150-250 g was homogenised in ice-cold 50 mM Tris-HCl, pH 7.4 (at 25° C.) containing 120 mM sodium chloride and 5 mM potassium chloride (Tris buffer; 1:60 w/v) using a Kinematic polytron (speed setting 6 for 30 seconds) and centrifuged at 40,000 g for 10 minutes. The supernatant was discarded and the pellet rehomogenised in Tris buffer, 1:60 w/v, and centrifuged at 40,000 g for 10 minutes. This step was repeated twice more so that, in total, the brain tissue was homogenised and centrifuged four times. The final pellet was resuspended in 50 mM Tris-HCl, pH 7.4 containing 300 mM sodium chloride and 5 mM potassium chloride (equivalent to 25 mg wet weight of tissue/ml) and used immediately in the binding assay. All centrifugations were performed at 4° C.
Membranes (400 μl; equivalent to 10 mg wet weight of tissue/tube) were incubated with 50 μl [^3 H]nisoxetine at a single concentration of 0.6 nM and 50 μl of distilled water (total binding) or 50 μl of test compound (10^-6 M) or 50 μl of mazindol (1 μM; non-specific binding) for 4 h at 4° C.
Membrane bound radioactivity was recovered by filtration under vacuum through Skatron 11734 filters using a Skatron cell harvester. Filters were rapidly washed with ice-cold 50 mM Tris-HCl, pH 7.4 containing 120 mM sodium chloride and 5 mM potassium chloride (wash setting 9,9,0) and radioactivity determined by liquid scintillation counting (1 ml Packard MV Gold scintillator).
as §1, §2, §3, §4, §5, §6, §7, §8, §9, §10, §11

Structures can show the parent of a compound that is named as a salt.

T1 sequence (P31652 whole entry): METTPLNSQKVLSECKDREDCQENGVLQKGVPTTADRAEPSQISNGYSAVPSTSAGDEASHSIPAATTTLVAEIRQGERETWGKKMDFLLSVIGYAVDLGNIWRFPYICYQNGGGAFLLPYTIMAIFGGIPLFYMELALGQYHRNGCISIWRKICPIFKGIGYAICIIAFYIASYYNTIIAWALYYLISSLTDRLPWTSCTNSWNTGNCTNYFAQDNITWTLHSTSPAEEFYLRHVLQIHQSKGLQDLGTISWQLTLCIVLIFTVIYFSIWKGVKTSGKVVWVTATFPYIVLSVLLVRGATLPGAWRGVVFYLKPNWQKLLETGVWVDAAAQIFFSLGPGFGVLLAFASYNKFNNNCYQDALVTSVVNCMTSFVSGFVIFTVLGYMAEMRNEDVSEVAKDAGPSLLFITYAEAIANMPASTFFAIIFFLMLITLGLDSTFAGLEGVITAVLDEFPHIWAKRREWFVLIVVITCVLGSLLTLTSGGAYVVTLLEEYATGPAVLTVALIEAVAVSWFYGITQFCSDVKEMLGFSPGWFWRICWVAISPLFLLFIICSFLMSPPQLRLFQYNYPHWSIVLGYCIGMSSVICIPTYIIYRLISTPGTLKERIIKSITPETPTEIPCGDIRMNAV
T2 sequence (P23977 whole entry): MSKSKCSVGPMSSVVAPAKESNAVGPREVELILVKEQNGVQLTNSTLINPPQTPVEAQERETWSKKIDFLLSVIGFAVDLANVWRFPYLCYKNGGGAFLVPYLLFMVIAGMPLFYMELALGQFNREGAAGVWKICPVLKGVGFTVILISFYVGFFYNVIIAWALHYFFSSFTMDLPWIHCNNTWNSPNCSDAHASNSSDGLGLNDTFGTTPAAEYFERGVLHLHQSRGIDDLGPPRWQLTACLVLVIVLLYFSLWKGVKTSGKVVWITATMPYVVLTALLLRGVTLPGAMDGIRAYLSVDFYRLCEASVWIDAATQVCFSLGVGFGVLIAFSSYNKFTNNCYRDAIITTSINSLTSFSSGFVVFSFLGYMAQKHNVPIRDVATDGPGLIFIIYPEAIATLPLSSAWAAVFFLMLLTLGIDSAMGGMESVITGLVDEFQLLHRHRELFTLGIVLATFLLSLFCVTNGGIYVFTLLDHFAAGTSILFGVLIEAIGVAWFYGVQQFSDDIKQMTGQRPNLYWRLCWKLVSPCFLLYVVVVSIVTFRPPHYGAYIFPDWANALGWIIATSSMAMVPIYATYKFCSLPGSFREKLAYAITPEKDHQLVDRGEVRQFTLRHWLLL
T3 sequence (Q63380 1-617): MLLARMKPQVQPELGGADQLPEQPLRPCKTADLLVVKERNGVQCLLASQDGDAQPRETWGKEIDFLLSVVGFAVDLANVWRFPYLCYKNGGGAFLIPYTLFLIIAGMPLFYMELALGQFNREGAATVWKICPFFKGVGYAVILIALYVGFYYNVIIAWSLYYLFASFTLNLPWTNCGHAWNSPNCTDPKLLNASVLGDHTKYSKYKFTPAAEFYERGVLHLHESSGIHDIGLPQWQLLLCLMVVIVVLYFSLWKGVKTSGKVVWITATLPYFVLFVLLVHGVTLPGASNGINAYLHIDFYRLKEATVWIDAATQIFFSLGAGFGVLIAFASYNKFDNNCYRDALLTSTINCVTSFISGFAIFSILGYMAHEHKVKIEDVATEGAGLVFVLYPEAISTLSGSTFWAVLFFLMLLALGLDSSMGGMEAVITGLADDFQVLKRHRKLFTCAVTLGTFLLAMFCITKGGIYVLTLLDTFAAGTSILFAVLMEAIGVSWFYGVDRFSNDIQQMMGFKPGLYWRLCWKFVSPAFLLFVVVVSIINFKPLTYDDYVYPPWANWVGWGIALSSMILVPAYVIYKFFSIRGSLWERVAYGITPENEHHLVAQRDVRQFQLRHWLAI

For the compound `Clc1ccc(C2(c3csc(=NCc4ccccc4)n3Cc3ccccc3)CCC2)cc1Cl` [Example 22, 3-Benzyl-2-benzylimino-4-[1-(3,4-dichlorophenyl)cyclobutyl]-2,3-dihydrothiazole hydrobromide], the figures for the inhibition at 1 µM in test [1], in test [2] and in test [3] were less than 50%, 79% and less than 50%, respectively.
Turning to `CCCCN=c1scc(C2(c3ccc4ccccc4c3)CCC2)n1CCCC` [Example 40, 3-Butyl-2-butylimino-4-[1-(2-naphthyl)cyclobutyl]-2,3-dihydrothiazole hydrobromide], the figures for the inhibition at 1 µM in test [1], in test [2] and in test [3] were 97%, 113% and less than 50%, respectively.
On the same counts, the results for `Cc1ccc(N=c2scc(C3(c4ccc5ccccc5c4)CCC3)n2-c2ccc(C)cc2C)c(C)c1` [Example 52, 4-[1-(2-Naphthyl)cyclobutyl]-3-(2,4-xylyl)-2-(2,4-xylylimino)-2,3-dihydrothiazole hydrobromide] are less than 50%, 74% and less than 50%.
On to `C=CCN=c1scc(C2(c3ccc(Cl)c(Cl)c3)CCC2)n1CC=C` [Example 20, 3-Allyl-2-allylimino-4-[1-(3,4-dichlorophenyl)cyclobutyl]-2,3-dihydrothiazole hydrobromide], for which the inhibition at 1 µM in test [1] is 104%; in test [2] it was 105%; in test [3], 91%.
Take `Fc1ccc(CN=c2scc(C3(c4ccc(Cl)c(Cl)c4)CCC3)n2Cc2ccc(F)cc2)cc1` [Example 23, 4-[1-(3,4-Dichlorophenyl)cyclobutyl]-3-(4-fluorobenzyl)-2-(4-fluorobenzylimino)-2,3-dihydrothiazole hydrobromide]: the values for the inhibition at 1 µM in test [1], in test [2] and in test [3] were less than 50%, 83% and less than 50%, respectively.
Turning to `Clc1ccc(C2(C3=CSC4=NCCN34)CCCC2)cc1Cl` [Example 6, 3-[1-(3,4-dichlorophenyl)cyclopentyl]-5,6-dihydroimidazo[2,1-b]thiazole hydrobromide], the inhibition at 1 µM in test [1] was 86%; in test [2], 112%; in test [3], 101%.
On the same counts, the results for `CCCCN=c1scc(C2(c3ccc(Cl)cc3)CCCC2)n1CCCC` [Example 60, 3-Butyl-2-butylimino-4-[1-(4-chlorophenyl)cyclopentyl]-2,3-dihydrothiazole hydrobromide] are less than 50%, 106% and less than 50%.
On the same counts, the results for `Cc1ccc(N=c2scc(C3(c4ccc5ccccc5c4)CCC3)n2-c2ccc(C)cc2)cc1` [Example 50, 4-[1-(2-Naphthyl)cyclobutyl]-3-(p-tolyl)-2-(p-tolylimino)-2,3-dihydrothiazole hydrobromide] are less than 50%, 68% and less than 50%.
For the compound `CCCCN=c1scc(C2(c3ccccc3)CCCCC2)n1CCCC` [Example 61, 3-Butyl-2-butylimino-4-(1-phenylcyclohexyl)-2,3-dihydrothiazole hydrobromide], the inhibition at 1 µM in test [1] is less than 50%; in test [2] it was 68%; in test [3] it was less than 50%.
Regarding `COc1ccc(CCN=c2scc(C3(c4ccc(Br)cc4)CCC3)n2CCc2ccc(OC)c(OC)c2)cc1OC` [Example 66, 4-[1-(4-Bromophenyl)cyclobutyl]-3-(3,4-dimethoxyphenethyl)-2-(3,4-dimethoxyphenethylimino)-2,3-dihydrothiazole hydrobromide], the results for the inhibition at 1 µM in test [1], in test [2] and in test [3] were less than 50%, 58% and less than 50%, respectively.
As for `Brc1ccc(C2(C3=CSC4=NCCN34)CCC2)cc1` [Example 70, 3-[1-(4-Bromophenyl)cyclobutyl]-5,6-dihydroimidazo[2,1-b]thiazole hydrobromide], the inhibition at 1 µM in test [1] is less than 50%; in test [2], 80%; in test [3], 52%.
Consider `C=CCN=c1scc(C2(c3ccc4ccccc4c3)CCC2)n1CC=C` [Example 42, 3-Allyl-2-allylimino-4-[1-(2-naphthyl)cyclobutyl]-2,3-dihydrothiazole hydrobromide], for which the inhibition at 1 µM stood at 101% in test [1], 113% in test [2] and 93% in test [3].
For `CC(C)CN=c1scc(C2(c3ccc(Cl)c(Cl)c3)CCC2)n1CC(C)C` [Example 19, 4-[1-(3,4-Dichlorophenyl)cyclobutyl]-3-isobutyl-2-isobutylimino-2,3-dihydrothiazole hydrobromide], the inhibition at 1 µM in test [1] is 89%; in test [2], 107%; in test [3], less than 50%.
With `Br.CC(C)(C1=CSC2=NCCN12)c1ccc(Cl)c(Cl)c1` [Example 74, 3-[1-(3,4-Dichlorophenyl)-1-methylethyl]-5,6-dihydroimidazo[2,1-b]thiazole hydrobromide], the “5-HT uptake (% displacement of specific binding of tritiated ligand)” value in test [1] (1 µM, hydrobromide) worked out at 52%. In addition, in test [2] (hydrobromide, 1 µM), the “DA uptake (% displacement of specific binding of tritiated ligand)” value is 97%.

Values taken from patent US6187802A, “Substituted 4-arylmethylene-2-imino-2,3-dihydrothiazoles and derivatives and their pharmaceutical use” (Knoll Aktiengesellschaft, priority 1997, dated 2001).
